What was measured:
Type in all cases: biochemical
Human recombinant PDE4B = target: T1, Human recombinant PDE4B (Homo sapiens, UniProt Q07343); assay: PDE4B IMAP fluorescence polarisation assay; settings: human recombinant PDE4B (HSPDE4B2B); accurate to within ±0.5; read-out: PDE4B mean pIC50 (converted)
T1 construct: made in house; host or cells: Saccharomyces cerevisiae strain GL62
Description: Human recombinant PDE4B, in particular the 2B splice variant thereof (HSPDE4B2B), is disclosed in WO 94/20079 and also in M. M. McLaughlin et al., “A low Km, rolipram-sensitive, cAMP-specific phosphodiesterase from human brain: cloning and expression of cDNA, biochemical characterisation of recombinant protein, and tissue distribution of mRNA”, J. Biol. Chem., 1993, 268, 6470-6476. For example, in Example 1 of WO 94/20079, human recombinant PDE4B is described as being expressed in the PDE-deficient yeast Saccharomyces cerevisiae strain GL62, e.g. after induction by addition of 150 uM CuSO4, and 100,000×g supernatant fractions of yeast cell lysates are described for use in the harvesting of PDE4B enzyme.
(§1) The ability of compounds to inhibit PDE catalytic activity was determined by IMAP Fluorescence Polarisation (FP) assay (Molecular Devices Ltd code: R8062) in 384-well format. Test compounds (small volume, e.g. 0.5 μl, of solution in DMSO) were preincubated at ambient temperature in black 384-well microtitre plates (supplier: NUNC, code 262260) with PDE enzyme in 10 mM Tris-HCl buffer pH 7.2, 10 mM MgCl2, 0.1% (w/v) bovine serum albumin, 0.05% NaN3 for 10-30 minutes. The enzyme level was set so that reaction was linear throughout the incubation.
For the PDE3, PDE4B and PDE4D assays Fluorescein adenosine 3′,5′-cyclic phosphate (Molecular Devices Ltd code: R7091) was added to give ˜40 nM final concentration. For the PDE5 and PDE6 assays Fluorescein guanosine 3′,5′-cyclic phosphate (Molecular Devices Ltd code: R7090) was added to give ˜40 nM final concentration. Plates were mixed on an orbital shaker for 10 seconds and incubated at ambient temperature for 40 minutes. IMAP binding reagent (Molecular Devices Ltd code: R7207) was added (60 μl of a 1 in 400 dilution in binding buffer of the kit stock solution) to terminate the assay. […] The FP ratio of parallel to perpendicular light was measured using an Analyst™ plate reader (from Molecular Devices Ltd). […] Curves were analysed using ActivityBase and XLfit (ID Business Solutions Limited). Results were expressed as pIC50 values.

Human recombinant PDE4D = Human recombinant PDE4D (Homo sapiens, UniProt Q08499); assay: PDE4D IMAP fluorescence polarisation assay; settings: human recombinant PDE4D (HSPDE4D3A); accurate to within ±0.5; read-out: PDE4D mean pIC50 (converted)
Human recombinant PDE4D, sequence (Q08499 1-673 isoform Q08499-2): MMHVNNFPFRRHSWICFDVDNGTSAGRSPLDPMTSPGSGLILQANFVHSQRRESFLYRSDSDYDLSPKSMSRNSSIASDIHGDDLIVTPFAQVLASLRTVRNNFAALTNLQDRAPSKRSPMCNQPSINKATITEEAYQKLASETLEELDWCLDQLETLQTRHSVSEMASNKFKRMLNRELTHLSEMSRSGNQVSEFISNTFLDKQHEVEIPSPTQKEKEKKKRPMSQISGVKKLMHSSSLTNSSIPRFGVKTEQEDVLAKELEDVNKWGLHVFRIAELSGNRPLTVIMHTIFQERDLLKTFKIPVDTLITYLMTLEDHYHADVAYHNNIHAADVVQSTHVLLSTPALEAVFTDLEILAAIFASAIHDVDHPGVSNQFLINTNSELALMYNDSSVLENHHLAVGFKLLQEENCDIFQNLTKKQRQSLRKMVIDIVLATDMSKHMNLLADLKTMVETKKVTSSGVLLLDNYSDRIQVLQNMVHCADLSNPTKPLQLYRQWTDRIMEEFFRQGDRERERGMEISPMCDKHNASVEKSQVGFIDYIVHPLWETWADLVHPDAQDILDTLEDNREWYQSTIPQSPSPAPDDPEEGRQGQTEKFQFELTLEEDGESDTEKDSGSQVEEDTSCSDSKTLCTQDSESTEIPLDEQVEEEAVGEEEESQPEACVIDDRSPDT
Experimental: Human recombinant PDE4D (HSPDE4D3A) is disclosed in P. A. Baecker et al., “Isolation of a cDNA encoding a human rolipram-sensitive cyclic AMP phoshodiesterase (PDE IVD)”, Gene, 1994, 138, 253-256.
as §1
(§2) For the PDE3, PDE4B and PDE4D assays Fluorescein adenosine 3′,5′-cyclic phosphate (Molecular Devices Ltd code: R7091) was added to give ˜40 nM final concentration. For the PDE5 and PDE6 assays Fluorescein guanosine 3′,5′-cyclic phosphate (Molecular Devices Ltd code: R7090) was added to give ˜40 nM final concentration. Plates were mixed on an orbital shaker for 10 seconds and incubated at ambient temperature for 40 minutes. IMAP binding reagent (Molecular Devices Ltd code: R7207) was added (60 μl of a 1 in 400 dilution in binding buffer of the kit stock solution) to terminate the assay. Plates were allowed to stand at ambient temperature for 1 hour. The FP ratio of parallel to perpendicular light was measured using an Analyst™ plate reader (from Molecular Devices Ltd). […] Curves were analysed using ActivityBase and XLfit (ID Business Solutions Limited). Results were expressed as pIC50 values.

Human recombinant PDE5 = Human recombinant PDE5 (Homo sapiens, UniProt O76074); assay: PDE5 IMAP fluorescence polarisation assay; settings: accurate to within ±0.5, read-out: PDE5 mean pIC50 (converted)
Experimental: Human recombinant PDE5 is disclosed in K. Loughney et al., “Isolation and characterisation of cDNAs encoding PDE5A, a human cGMP-binding, cGMP-specific 3′,5′-cyclic nucleotide phosphodiesterase”, Gene, 1998, 216, 139-147.
as §1, §2

PDE6 = target: T2, PDE6 (Bos taurus, UniProt P11541+P23439); assay: PDE6 IMAP fluorescence polarisation assay; settings: PDE6 from bovine retina; accurate to within ±0.5; read-out: PDE6 mean pIC50 (converted)
T2 construct: PDE6 may be purified from bovine retina; from tissue; host or cells: bovine retina
T2 sequence (P11541 2-856 limits assumed): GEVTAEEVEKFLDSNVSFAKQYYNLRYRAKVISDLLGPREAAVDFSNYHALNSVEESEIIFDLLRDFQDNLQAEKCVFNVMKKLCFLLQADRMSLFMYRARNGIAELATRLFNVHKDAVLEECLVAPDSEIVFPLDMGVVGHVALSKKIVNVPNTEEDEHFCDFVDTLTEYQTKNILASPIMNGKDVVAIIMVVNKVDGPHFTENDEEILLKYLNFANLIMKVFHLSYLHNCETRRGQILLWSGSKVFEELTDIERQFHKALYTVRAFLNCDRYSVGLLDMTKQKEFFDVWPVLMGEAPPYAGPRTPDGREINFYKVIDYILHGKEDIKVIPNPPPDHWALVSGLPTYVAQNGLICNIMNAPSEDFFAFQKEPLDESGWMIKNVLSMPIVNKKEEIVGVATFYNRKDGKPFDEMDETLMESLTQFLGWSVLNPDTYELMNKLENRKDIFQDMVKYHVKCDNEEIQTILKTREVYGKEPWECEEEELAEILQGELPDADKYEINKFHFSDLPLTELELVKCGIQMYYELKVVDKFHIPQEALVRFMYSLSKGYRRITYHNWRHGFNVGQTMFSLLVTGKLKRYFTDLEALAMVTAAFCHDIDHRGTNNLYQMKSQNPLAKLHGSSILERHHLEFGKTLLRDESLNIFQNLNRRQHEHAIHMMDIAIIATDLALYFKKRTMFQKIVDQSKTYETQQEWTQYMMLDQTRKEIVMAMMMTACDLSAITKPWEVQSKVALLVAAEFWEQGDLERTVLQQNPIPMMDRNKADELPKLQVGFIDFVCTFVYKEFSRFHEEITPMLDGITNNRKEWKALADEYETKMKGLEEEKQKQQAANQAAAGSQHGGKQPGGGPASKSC
T2 sequence (P23439 2-850 limits assumed): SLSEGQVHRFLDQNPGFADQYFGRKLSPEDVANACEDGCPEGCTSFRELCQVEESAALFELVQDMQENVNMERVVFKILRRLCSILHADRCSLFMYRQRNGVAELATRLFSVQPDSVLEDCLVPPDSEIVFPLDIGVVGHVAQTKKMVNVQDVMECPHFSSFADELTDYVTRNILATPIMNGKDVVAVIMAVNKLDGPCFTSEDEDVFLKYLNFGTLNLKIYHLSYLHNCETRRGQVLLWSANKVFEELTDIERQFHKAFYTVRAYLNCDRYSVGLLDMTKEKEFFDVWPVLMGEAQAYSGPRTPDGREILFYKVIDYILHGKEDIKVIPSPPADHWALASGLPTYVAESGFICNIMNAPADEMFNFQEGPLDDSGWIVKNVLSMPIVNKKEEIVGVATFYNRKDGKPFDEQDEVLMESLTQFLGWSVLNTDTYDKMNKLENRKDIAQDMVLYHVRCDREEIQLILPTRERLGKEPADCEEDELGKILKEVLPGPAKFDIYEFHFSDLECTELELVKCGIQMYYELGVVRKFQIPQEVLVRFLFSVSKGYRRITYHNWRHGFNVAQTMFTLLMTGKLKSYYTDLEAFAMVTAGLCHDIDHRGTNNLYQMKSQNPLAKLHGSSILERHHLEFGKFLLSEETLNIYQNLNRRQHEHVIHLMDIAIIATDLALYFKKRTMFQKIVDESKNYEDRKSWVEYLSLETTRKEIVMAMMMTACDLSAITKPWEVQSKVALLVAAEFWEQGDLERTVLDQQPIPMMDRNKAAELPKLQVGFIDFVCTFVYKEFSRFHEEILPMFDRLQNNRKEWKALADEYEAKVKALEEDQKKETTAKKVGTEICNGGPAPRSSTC
Description: PDE6 may be purified from bovine retina as described by: P. Catty and P. Deterre, “Activation and solubilization of the retinal cGMP-specific phosphodiesterase by limited proteolysis”, Eur. J. Biochem., 1991, 199, 263-269; A. Tar et al. “Purification of bovine retinal cGMP phosphodiesterase”, Methods in Enzymology, 1994, 238, 3-12; and/or D. Srivastava et al. “Effects of magnesium on cyclic GMP hydrolysis by the bovine retinal rod cyclic GMP phosphodiesterase”, Biochem. J., 1995, 308, 653-658.
as §1, §2

T1 sequence (Q07343 1-564 isoform Q07343-2): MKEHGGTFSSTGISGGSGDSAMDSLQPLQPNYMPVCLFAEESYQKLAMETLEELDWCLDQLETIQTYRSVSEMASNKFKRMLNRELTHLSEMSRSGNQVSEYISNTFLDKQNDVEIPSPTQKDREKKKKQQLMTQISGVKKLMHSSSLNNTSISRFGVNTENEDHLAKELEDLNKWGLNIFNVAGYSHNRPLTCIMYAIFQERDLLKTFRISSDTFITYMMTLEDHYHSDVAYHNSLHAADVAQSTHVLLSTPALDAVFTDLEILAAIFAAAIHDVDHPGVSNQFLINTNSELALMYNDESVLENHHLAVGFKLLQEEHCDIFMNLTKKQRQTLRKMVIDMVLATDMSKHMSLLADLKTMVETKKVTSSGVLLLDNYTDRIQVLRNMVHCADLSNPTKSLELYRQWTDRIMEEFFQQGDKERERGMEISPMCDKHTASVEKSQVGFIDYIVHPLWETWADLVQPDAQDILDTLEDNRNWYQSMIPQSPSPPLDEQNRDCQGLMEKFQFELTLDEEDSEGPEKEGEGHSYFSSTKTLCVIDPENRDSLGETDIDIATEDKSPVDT

## Cc1nc([S+](C)[O-])cc2c(Nc3cccc4c3CCO4)c(C(N)=O)cnc12 (racemic) [Example 3, (±)-4-(2,3-Dihydro-1-benzofuran-4-ylamino)-8-methyl-6-(methylsulfinyl)-1,7-naphthyridine-3-carboxamide]
Human recombinant PDE4B
  IC50: 0.398 nM
Human recombinant PDE4D
  IC50: 0.631 nM
Human recombinant PDE5
  IC50: > 10000 nM
PDE6
  IC50: > 10000 nM

## CSc1cc2c(Nc3cccc4c3CCO4)c(C(N)=O)cnc2c(C)n1 [Example 1, 4-(2,3-Dihydro-1-benzofuran-4-ylamino)-8-methyl-6-(methylthio)-1,7-naphthyridine-3-carboxamide]
Human recombinant PDE4B
  IC50: 0.316 nM
Human recombinant PDE4D
  IC50: 0.316 nM
Human recombinant PDE5
  IC50: > 10000 nM
PDE6
  IC50: > 10000 nM

## Cc1nc(S(C)(=O)=O)cc2c(Nc3cccc4c3CCO4)c(C(N)=O)cnc12 [Example 2, 4-(2,3-Dihydro-1-benzofuran-4-ylamino)-8-methyl-6-(methylsulfonyl)-1,7-naphthyridine-3-carboxamide]
Human recombinant PDE4B
  IC50: 0.126 nM
Human recombinant PDE4D
  IC50: 0.2 nM
Human recombinant PDE5
  IC50: > 10000 nM
PDE6
  IC50: > 10000 nM
